Converted amounts (≈) assume the structure as drawn. Counter-ions that a name gives are not always drawn. Like-named read-outs stand apart in the source and are kept apart here.
Tests used:
[1] = tested on: conscious mice under normobaric hypoxia; assay: antihypoxic activity on conscious mice under normobaric hypoxia; assay type: in vivo; settings: 50 mg/kg i.p.; for Time of survival, % / Time of survival, Mean ± deviation: 96% nitrogen and 4% oxygen; for Time of survival, %: increase over control; for Time of survival, Mean ± deviation: 30 minutes before, control 6.0 ± 1.04 min; for Protection: protected = alive for twofold time of untreated animals
Experimental: According to one method, the antihypoxic activity was studied on conscious mice under normobaric hypoxia. Five male mice were placed in a glass cylinder of 3 liters volume flown through by a gas mixture containing 96% of nitrogen and 4% of oxygen. The time interval from the allocation up to the perishment of the animals was measured for 15 minutes as a maximum. The animals were considered as protected when they were alive for a twofold time length as compared to the time of perishment of the untreated animals. The compounds under test were intraperitoneally administered to 10 animals each in a dose of 50 mg/kg of body-weight 30 minutes before allocating in the glass cylinder.

[2] = asphyxic anoxia test; assay type: in vivo; settings: 1 h; oral, one hour before; protected = survival longer by 30% than control
Experimental: According to the asphyxic anoxia test [Caillard O. et al.: Life Sci. 16, 1607 (1975(], the animals were starved for 16 hours, then treated orally, and one hour following the treatment they were allocated in tightly closed glass bottles of 100 ml volume. The time of survival was registered as the time interval from closing the bottle up to the last respiration. The animals were considered as protected when they were alive for a time longer by 30% than the average time of survival of the control group.
(§1) According to the hypobaric hypoxia test [Baumel J. et al.: Proc. Soc. Bio. N.Y. 132, 629 (1969)], the animals were starved for 16 hours, then treated orally and one hour following the treatment they were allocated in an exsiccator where the pressure was decreased to 170 Hgmm within 20 seconds. The time of survival was registered from this time point up to the last respiration. The animals were considered as protected when they were alive for a time longer by 100% than the average time of survival of the control group. The ED50 value (i.e. the dose which was effective in 50%) was calculated from the percentage of the protected animals by using the probit analysis method.

[3] = hypobaric hypoxia test; assay type: in vivo; settings: 1 h; oral, one hour before, 170 Hgmm; protected = survival longer by 100% than control
Experimental: as §1

[4] = in vivo; settings: po
Experimental: On using the muscle incoordination model (rotarod method) [H. Kwibara et al.: Japan J. Pharmacol. 27, 117 (1977)], after a previous training the animals were selected which could […] for 120 seconds on a horizontal rod of 20 mm in diameter rotating with 12 rpm. A muscle-incoordinating action was stated when the animals fell down from the rotating rod within the time limits.

[5] = tested on: mice; assay: maximal electroshock model (anticonvulsive); assay type: in vivo; settings: Mus musculus, po; 20 mA, 0.2 sec.; p.o.; read-out: Anticonvulsive effect, Max. electroshock ED50
Text: On using the maximal electroshock model [Swinyard E. A. et at.: J. Pharmacol. Exp. Ther. 106, 319 (1959)], a shock (20 mA, 0.2 sec. HSE Shock Equipment Type 207) was given to mice weighing 22 to 24 g by using corneal electrodes. The animals were considered as protected the tonic extension of the lower extremities of which were abolished.

[6] = tested on: mice; assay: metrazole seizure method (anticonvulsive); assay type: in vivo; settings: Mus musculus, po; 125 mg/kg s.c. pentylenetetrazole; p.o.; read-out: Anticonvulsive effect, Metrazole seizure ED50
Experimental: On using the metrazole seizure method [Everett, G. M. and Richards, R. K.: J. Pharmacol. Exp. Ther., 81, 402 (1944)], a subcutaneous dose of 125 mg/kg of pentylenetetrazole was administered to mice after pre-treatment. The persistant clonic convulsions as well as the tonic extensory convulsions abolished by the treatment were registered.

[7] = in vivo; parameters: species or system mice; settings: mouse, po
Text: On determining the muscle relaxant activity (traction test), male mice weighing 18 to 22 g were suspended by their upper legs on a horizontal wire of 5 mm in diameter.

[8] = tested on: isolated guinea pig ileum; assay: Inhibition of barium-chloride-induced contraction of guinea pig ileum (spasmolytic activity); settings: for IC50: Cavia porcellus, read-out: ED50, inhibition of barium-chloride-induced contraction of guinea pig ileum
Experimental: The spasmolytic activity of the compounds was determined by using the traditional method, i.e. on the isolated guinea pig ileum [Magnus, R., Pflugers Arch. 102, 123 (1904)]. Papaverine and ethyl (+)-apovincamate used as therapeutic spasmolytics were used as reference drugs.

[9] = tested on: internal carotid artery; assay: cerebral blood flow in the internal carotid artery of anaesthetized dogs (vasodilating effect); assay type: in vivo; settings: 1 mg/kg of body-weight intravenous, chloralose-pentobarbital anaesthetized dogs
Experimental: (§2) The vasodilating effect was studied in dogs anaesthetized by a chloralose-pentobarbital mixture. […] Electromagnetic flow meters were used for measuring the blood flow. The substances under test were intravenously administered in a dose of 1 mg/kg of body-weight to 6 dogs and the percentage changes of the parameters measured were evaluated. Ethyl (+)-apovincamate, a commonly used therapeutic cerebral vasodilator was employed as reference drug.

[10] = tested on: femoral artery; assay: extremital blood flow in the femoral artery of anaesthetized dogs (vasodilating effect); assay type: in vivo; settings: 1 mg/kg of body-weight intravenous, chloralose-pentobarbital anaesthetized dogs
Experimental: as §2

[11] = isolated guinea pig ileum, barium chloride

| Compound | Time of survival, % [1] [%] | Time of survival, Mean ± deviation [1] [min] | ED50 [2] [mg/kg] | ED50 [3] [mg/kg] | Circulatory effects (change in %): Carotid artery flow [9] | Circulatory effects (change in %): Femoral flow [10] | Protection [1] [%] | also measured |
| --- | --- | --- | --- | --- | --- | --- | --- | --- |
| CC[C@]12CCCN3CCc4c(n(c5ccccc45)[C@@](O)(C(=O)OC)C1)[C@@H]32 [Vincamine, reference compound] | 2 | 6.1 ± 1.30 | – | – | – | – | – | – |
| CCC1(c2ccccc2)NC(=O)N(C)C1=O (centres unmarked) [Mephenytoin] | – | – | > 80 | > 80 | – | – | – | TD50 [4]: 78.6 mg/kg |
| CCOC(=O)C1=CC2(CC)CCCN3CCc4c(n1c1cccc([N+](=O)[O-])c41)C32 (single isomer, unassigned) [ethyl 9-nitroapovincamate monohydrochloride] | – | – | 42.7 | > 50 | – | – | – | ED50 [5]: 25.6 mg/kg; ED50 [6]: 27.6 mg/kg; TD50 [4]: > 180 mg/kg; TD50 [7]: > 180 mg/kg |
| CCCOC(=O)C1=C[C@]2(CC)CCCN3CCc4c(n1c1cccc([N+](=O)[O-])c41)[C@@H]32 [Propyl 9-nitroapovincamate] | – | – | – | – | – | – | – | ED50, inhibition of barium-chloride-induced contraction of guinea pig ileum [8, 11]: 0.2 µg/mL |
| CCOC(=O)C1=C[C@]2(CC)CCCN3CCc4c(n1c1ccccc41)[C@@H]32 [Ethyl (+)-apovincamate, reference compound] | 7 | 6.4 ± 1.58 | > 50 | > 50 | +30% | +15% | – | IC50 [8, 11]: 2 µg/mL (≈ 5.71 µM) |
| CCOC(=O)C1=CC2(CC)CCCN3CCc4c(n1c1cccc([N+](=O)[O-])c41)C32 (single isomer, unassigned) [Ethyl 9-nitroapovincamate, ethyl 9-nitroapovincamate] | 123 | 13.4 ± 2.37 | – | – | +95% | 0% | 80 | IC50 [8, 11]: 1 µg/mL (≈ 2.53 µM) |
| Acetoxyethyl 9-nitroapovincamate | 68 | 10.1 ± 3.51 | – | – | – | – | 30 | ED50, inhibition of barium-chloride-induced contraction of guinea pig ileum [8, 11]: 0.4 µg/mL |
| CCOC(=O)C1=CC2(CC)CCCN3CCc4c(n1c1cc([N+](=O)[O-])ccc41)C32 (single isomer, unassigned) [Ethyl 11-nitroapovincamate, ethyl 11-nitroapovincamate] | 83 | 11.0 ± 3.35 | – | – | – | – | 50 | – |
| COc1ccc(Cc2nccc3cc(OC)c(OC)cc23)cc1OC [Papaverine, reference compound] | – | – | – | – | – | – | – | IC50 [8]: 5.4 µg/mL (≈ 15.9 µM) |
| CCC12C=C(C(=O)OCCO)n3c4c(c5c([N+](=O)[O-])cccc53)CCN(CCC1)C42 (single isomer, unassigned) [2-Hydroxyethyl 9-nitroapovincamate, 2-hydroxyethyl 9-nitroapovincamate] | – | – | – | – | +45% | +10% | – | – |
